Measured values published in US12396966B2, “Pharmaceutical compositions and oral dosage forms of ketamine derivatives” (XWPHARMA LTD., priority 2021, dated 2025).

Legend:
[1] = humans; cited from earlier work
[2] = Two-stage dissolution of tablets (0.1N HCl 1 hour, then 50 mM acetate buffer pH 4.5); format: physicochemical; details: FIG. 2
Protocol: The two-stage dissolution profiles were obtain as described in Example 5.
A two-stage dissolution apparatus was used to measure the dissolution profile of the tablets.
In the first stage, the tablets were immersed in 0.1N HCl a dissolution medium for 1 hour.
The dissolution medium was then immediately charged to a 50 mM acetate buffer at pH 4.5 immediately following 1 hour sampling via addition of 100 mM acetate buffer with appropriate pH and continued through 18 hours.
Two-stage dissolution profiles for the tablets were obtained using a USP 1 dissolution apparatus. The tablets were first added to 500 mL of a 0.1N hydrochloric acid solution and agitated at 100 RPM for 1 hour at 37° C. Samples (1 mL) were withdrawn at 0, 0.5 and 1 hours. The acid solution was then replaced with 1,000 mL of a 50 mM pH 4.5 acetate buffer solution and the tablets agitated at 100 RPM for up to 24 hours at 37° C. Samples (1 mL) were withdrawn at 1.5, 2, 3, 4, 6, 8, 12, 16, 20, and 24 hours. Solution samples were withdrawn at intervals and the concentration of Compound (39) was measured using high pressure liquid chromatography mass spectroscopy.

CYP2D6 = CYP2D6 (Homo sapiens, UniProt P10635); assay: Preclinical studies: metabolism of compound (39) to release esketamine; format: in vitro ADME
CYP2C19 = CYP2C19 (Homo sapiens, UniProt P33261); assay: as above; format: in vitro ADME
CYP3A4 = CYP3A4 (Homo sapiens, UniProt P08684); assay: as above; format: in vitro ADME
[3] = Preclinical pharmacokinetic studies; format: in vivo; details: mice
[4] = Preclinical pharmacokinetic studies; format: in vivo; details: rats
[5] = Preclinical pharmacokinetic studies; format: in vivo; details: dogs
[6] = Preclinical pharmacokinetic studies; format: in vivo; details: monkeys
[7] = Preclinical pharmacokinetic studies: dose proportionality and repeated dosing; format: in vivo

CYP2D6, sequence (P10635 whole entry, species assumed): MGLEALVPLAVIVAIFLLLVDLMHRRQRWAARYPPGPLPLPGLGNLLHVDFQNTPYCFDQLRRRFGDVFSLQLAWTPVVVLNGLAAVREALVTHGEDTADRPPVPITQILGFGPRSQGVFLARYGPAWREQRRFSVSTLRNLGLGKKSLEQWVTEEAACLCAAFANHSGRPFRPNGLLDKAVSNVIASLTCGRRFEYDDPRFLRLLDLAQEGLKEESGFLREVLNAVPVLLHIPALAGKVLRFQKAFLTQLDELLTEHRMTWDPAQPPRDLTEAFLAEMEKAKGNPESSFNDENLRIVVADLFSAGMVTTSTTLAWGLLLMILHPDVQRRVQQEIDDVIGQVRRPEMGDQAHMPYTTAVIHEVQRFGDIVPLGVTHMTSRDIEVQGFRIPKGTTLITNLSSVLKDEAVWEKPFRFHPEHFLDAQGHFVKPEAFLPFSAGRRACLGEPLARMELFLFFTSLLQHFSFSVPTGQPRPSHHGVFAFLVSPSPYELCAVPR
CYP3A4, sequence (P08684 whole entry, species assumed): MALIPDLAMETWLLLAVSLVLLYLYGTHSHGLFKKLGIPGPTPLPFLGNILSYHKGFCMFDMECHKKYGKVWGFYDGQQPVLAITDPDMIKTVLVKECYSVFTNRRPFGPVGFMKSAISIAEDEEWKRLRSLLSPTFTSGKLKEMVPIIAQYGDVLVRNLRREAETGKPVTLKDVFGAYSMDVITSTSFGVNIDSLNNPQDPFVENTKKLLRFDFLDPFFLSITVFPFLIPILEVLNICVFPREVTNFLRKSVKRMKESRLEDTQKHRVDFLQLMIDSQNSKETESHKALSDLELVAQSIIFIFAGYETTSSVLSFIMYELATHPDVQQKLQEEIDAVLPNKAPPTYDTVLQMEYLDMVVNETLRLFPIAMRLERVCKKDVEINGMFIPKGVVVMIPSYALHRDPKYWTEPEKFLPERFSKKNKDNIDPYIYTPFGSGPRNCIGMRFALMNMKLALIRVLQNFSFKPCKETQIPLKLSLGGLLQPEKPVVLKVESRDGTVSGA
CYP2C19, sequence (P33261 whole entry, species assumed): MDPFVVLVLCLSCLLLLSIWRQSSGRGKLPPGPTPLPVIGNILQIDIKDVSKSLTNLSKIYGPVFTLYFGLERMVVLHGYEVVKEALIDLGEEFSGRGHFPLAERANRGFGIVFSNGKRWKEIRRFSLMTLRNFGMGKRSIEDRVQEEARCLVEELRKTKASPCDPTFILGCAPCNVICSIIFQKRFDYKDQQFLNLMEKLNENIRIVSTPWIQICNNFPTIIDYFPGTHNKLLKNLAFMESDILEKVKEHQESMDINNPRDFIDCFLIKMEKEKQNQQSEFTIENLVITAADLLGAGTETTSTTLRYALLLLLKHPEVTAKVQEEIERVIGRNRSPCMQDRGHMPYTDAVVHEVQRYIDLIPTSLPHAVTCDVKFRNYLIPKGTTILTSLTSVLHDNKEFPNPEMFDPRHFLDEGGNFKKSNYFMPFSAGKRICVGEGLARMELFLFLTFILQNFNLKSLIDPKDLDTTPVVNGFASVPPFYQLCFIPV

SMILES: CNC1(c2ccccc2Cl)CCCCC1=O (stereo not drawn) [Ketamine, 2-(2-chlorophenyl)-2-(methylamino)cyclohexan-one]
- oral bioavailability (% F) [1]: about 20%

SMILES: CC(C)[C@@H](C(=O)OCOC(=O)N(C)[C@]1(c2ccccc2Cl)CCCCC1=O)N(C)C [compound (39), ((((S)-1-(2-chlorophenyl)-2-oxocyclohexyl)(methyl)carbamoyl)oxy)methyl dimethyl-L-valinate]
- effect of sodium lauryl sulfate on solubility of compound (39) ([2]; acid stage (0.1N HCl), tablets with and without sodium lauryl sulfate): reduces the solubility
- dissolution rate ([2]; pH 4.5, tablets with and without sodium lauryl sulfate): approximately independent of the amount of sodium lauryl sulfate
- metabolism by CYP2D6 to release esketamine (CYP2D6): metabolized
- metabolism by CYP2C19 to release esketamine (CYP2C19): metabolized
- metabolism by CYP3A4 to release esketamine (CYP3A4): metabolized
- absorption and conversion to esketamine [3]: rapid absorption and conversion to esketamine
- absorption and conversion to esketamine [4]: rapid absorption and conversion to esketamine
- absorption and conversion to esketamine [5]: rapid absorption and conversion to esketamine
- absorption and conversion to esketamine [6]: rapid absorption and conversion to esketamine
- accumulation of compound (39) and its metabolites ([7]; following repeated dosing): not observed
- systemic exposure, expressed as AUC: dose proportionality ([7]; for compound (39), esketamine, and noresketamine): less than to greater than dose proportional
